How the values were obtained:
[1] = tested on: isolated rabbit hearts; experiment: Controlled coronary occlusion in isolated perfused (Langendorff) rabbit hearts, infarct size as % of risk zone; settings: for infarct size, % of the risk zone: control 33%
Procedure: New Zealand white rabbits were anesthetized with intravenous sodium pentobarbital (30 mg/kg). The trachea was intubated and mechanical ventilation was achieved. After a left thoracotomy, a snare was passed around the coronary artery and the hearts were excised quickly, mounted on a Langendorff apparatus and perfused at 75 mm Hg pressure with non-recirculating Krebs buffer containing 118.5 mM NaCl, 4.7 mM KCl, 1.2 mM MgSO4, 1.2 mM KH2 PO4, 24.8 mM NaHCO3, 2.5 mM CaCl2, and 10 mM glucose. The Krebs buffer was gassed with 95% O2 /5% CO2 resulting in a pH of 7.4-7.5. The temperature of the perfusate was maintained at 37° C.
A fluid-filled latex balloon connected to a transducer with PE240 tubing was inserted into the left ventricle. The balloon volume was adjusted to set the left ventricular diastolic pressure equal to 5-10 mm Hg at the beginning of the experiment. Total coronary artery flow was measured by timed collection of perfusate dripping from the heart with a graduated cylinder.
The coronary artery was occluded for 30 minutes and reperfused for 2 hours. Fostriecin was mixed with oxygenated perfusate in a separate reservoir to a concentration of 1 μM. Treatment was begun by opening the line from the drug-laden reservoir and closing the line from the reservoir containing pure buffer. After 2 hours of reperfusion, the coronary artery was re-occluded, and 1-10 μm zinc cadmium sulfide fluorescent particles (Duke Scientific, Palo Alto, Calif.) were infused into the perfusate to demarcate the risk zone. The heart was removed, weighed, frozen, and cut into 2 mm thick slices. The slices were thawed and stained by incubation for 20 minutes at 37° C. in 1% triphenyltetrazolium chloride (TTC) in pH 7.4 buffer. The areas of infarct (TTC negative) and risk zone (non-fluorescent under ultraviolet light) were determined by planimetry. Infarct and risk zone volumes were calculated by multiplying each area by the slice thickness and summing the products. Infarct size for each heart was expressed as a percentage of the risk zone infarcted. In an untreated rabbit heart approximately 33% of the ischemic tissue infarcts in this model.
Employing the well-characterized rabbit model described herein in Example 1, a controlled coronary occlusion was employed to induce reproducibly myocardial infarctions in isolated hearts. Defining the risk zone as the tissue normally supplied with oxygenated blood by the coronary artery before it is occluded, a 30 minute coronary occlusion produces an infarction that averages 33% of the risk zone (see data for control rabbits; FIG. 1). When the isolated hearts were treated with 1 μM fostriecin administered 15 minutes prior to the onset of ischemia and present during the 30 minute ischemic period, a significant decrease in infarct size to 9% of the risk zone was obtained (FIG. 1). This level of protection is equivalent to that seen in ischemic preconditioning (see Cohen M. V., et al., Cardiol. Rev. 3(3):137-49 (1995)), and represents a substantial decrease in the amount of myocardial tissue damaged.
Since the onset of a myocardial infarction usually cannot be predicted, a compound that provides protection when administered after the onset of ischemia is clinically far more useful than a compound that is effective only if administered before the coronary occlusion. […] The addition of 10 μM fostriecin 10 minutes after the onset of ischemia decreased infarction size to 19% of the risk zone. […]

[2] = tested on: divalent cation-independent serine/threonine protein phosphatase activity; experiment: Divalent cation-independent phosphatase activity in dilute whole cell homogenate of rabbit ventricle; format: biochemical; settings: crude whole cell homogenate, [32P]-phosphohistone
Procedure: FIG. 5: Effect of fostriecin on the divalent cation-independent phosphatase activity contained in a dilute, whole cell homogenate of rabbit ventricle. Dilute homogenates of rabbit ventricle biopsies were assayed in the presence of the indicated amount of fostriecin. […] Assays were conducted in a total volume of 80 μl, and the indicated amount of fostriecin was added to the assay 10 minutes prior to initiation of the reaction by the addition of substrate. Each point represents the mean ± SE (n>6).
Determination of protein phosphatase activity: Protein phosphatase activity against phosphohistone was determined by the quantification of liberated [^32 P] from phosphohistone according to previously established methods (see Honkanen et al., J. Biol. Chem. 265:19401-04 (1990); Honkanen et al., Mol. Pharmacol. 40:577-83 (1991); and Critz and Honkanen, Neuroprotocols 6:78-83 (1995)). Assays (80 μl final volume) were conducted in 50 mM Tris-buffer (pH 7.4) containing 0.5 mM DTT, 4 mM EDTA, and phosphoprotein (2 μM PO4). […] [^32 P]Phosphate liberated by the enzyme was then extracted as a phosphomolybdate complex and measured according to the methods of Killilea et al., Arch. […] Aliquots of the upper phase (100 μl) were removed for counting, and radioactivity was quantified with a scintillation counter. […]

Question: Which “infarct size, % of the risk zone” value ([1]; 1 μM fostriecin from 15 minutes prior to ischemia and during 30-minute coronary occlusion) does the source give for CC(O)(/C=C/C1CC=CC(=O)O1)C(CC(O)\C=C/C=C\C=C\CO)OP(=O)(O)O (stereo not drawn) [fostriecin] here?
Answer: The value was 9 % of the risk zone.

Question: What about the “infarct size, % of the risk zone” value ([1]; 10 μM fostriecin added 10 minutes after onset of 30-minute ischemia) of the same compound?
Answer: Its value is 19 % of the risk zone.

Question: What about the inhibition at 10 µM ([1]; Oryctolagus cuniculus, 10 min, 10 μM fostriecin added 10 minutes after onset of ischemia, read-out: infarction smaller than in untreated hearts) of the same compound?
Answer: Its inhibition at 10 µM is 43%.

Question: And the hemodynamic effects ([1]; isolated rabbit heart perfused with 1 μM fostriecin)?
Answer: The hemodynamic effects was “No hemodynamic effects were observed”.

Question: And the “concentration found to provide protection” value ([1]; perfused rabbit hearts)?
Answer: Its value is 1 to 10 µM.

Question: What about the “inhibition of phosphatase activity in rabbit heart ventricle homogenate” value [2] of the same compound?
Answer: The value was “inhibits”.
